Measured values published in patent US9212201B2, “Antifungal and antiparasitic polyene macrolides” (priority 2010, dated 2015).
Converted amounts (≈) assume the structure as drawn.

Key:
Assay in all cases: In vitro antifungal susceptibility CLSI M27-A2 (MIC, MFC)
Type in all cases: cell-based
[1] = test system: C. rugosa; conditions: C. rugosa (2)
[2] = test system: C. krusei; conditions: C. krusei (10)
[3] = test system: C. tropicalis; conditions: C. tropicalis (10)
[4] = test system: Other Candida species (C. lipolytica, C. sake, C. sphaerica, C. norvegica); conditions: Other Candida spp. (4)
[5] = test system: C. lusitaniae; conditions: C. lusitaniae (10)
[6] = test system: C. parapsilosis; conditions: C. parapsilosis (10)
[7] = test system: C. albicans; conditions: C. albicans (10)
[8] = test system: C. glabrata; conditions: C. glabrata (10)
[9] = test system: C. guilliermondii; conditions: C. guilliermondii (2)
[10] = test system: C. kefyr; conditions: C. kefyr (10)

SMILES: C[C@@H](c1ncncc1F)[C@](O)(Cn1cncn1)c1ccc(F)cc1F [Voriconazole, voriconazole]
- MIC Range [1]: 0.25 µg/mL (≈ 0.716 µM)
- MIC ([1]; Diutina rugosa, read-out: GM (geometric mean MIC)): 0.25 µg/mL (≈ 0.716 µM)
- MIC Range [2]: 0.25 to 0.5 µg/mL
- MIC ([2]; Pichia kudriavzevii, read-out: GM (geometric mean MIC)): 0.425 µg/mL (≈ 1.22 µM)
- MIC50 ([2]; Pichia kudriavzevii, read-out: MIC50): 0.25 µg/mL (≈ 0.716 µM)
- MIC90 ([2]; Pichia kudriavzevii, read-out: MIC90): 0.5 µg/mL (≈ 1.43 µM)
- MIC Range [3]: <0.03 to 0.5 µg/mL
- MIC ([3]; Candida tropicalis, read-out: GM (geometric mean MIC)): 0.13 µg/mL (≈ 0.372 µM)
- MIC50 ([3]; Candida tropicalis, read-out: MIC50): 0.06 µg/mL (≈ 0.172 µM)
- MIC90 ([3]; Candida tropicalis, read-out: MIC90): 0.12 µg/mL (≈ 0.344 µM)
- MIC Range [4]: <0.03 to 1.0 µg/mL
- MIC ([4]; read-out: GM (geometric mean MIC)): 0.39 µg/mL (≈ 1.12 µM)
- MIC50 ([4]; read-out: MIC50): 0.06 µg/mL (≈ 0.172 µM)
- MIC Range [5]: <0.03 to 0.06 µg/mL
- MIC ([5]; Clavispora lusitaniae, read-out: GM (geometric mean MIC)): 0.03 µg/mL (≈ 0.0859 µM)
- MIC50 ([5]; Clavispora lusitaniae, read-out: MIC50): < 0.03 µg/mL
- MIC90 ([5]; Clavispora lusitaniae, read-out: MIC90): 0.03 µg/mL (≈ 0.0859 µM)
- MIC Range [6]: <0.03 to 0.12 µg/mL
- MIC ([6]; Lodderomyces parapsilosis, read-out: GM (geometric mean MIC)): 0.04 µg/mL (≈ 0.115 µM)
- MIC50 ([6]; Lodderomyces parapsilosis, read-out: MIC50): < 0.03 µg/mL
- MIC90 ([6]; Lodderomyces parapsilosis, read-out: MIC90): 0.03 µg/mL (≈ 0.0859 µM)
- MIC Range [7]: <0.03 to 0.25 µg/mL
- MIC ([7]; Candida albicans, read-out: GM (geometric mean MIC)): 0.06 µg/mL (≈ 0.172 µM)
- MIC50 ([7]; Candida albicans, read-out: MIC50): 0.03 µg/mL (≈ 0.0859 µM)
- MIC90 ([7]; Candida albicans, read-out: MIC90): 0.06 µg/mL (≈ 0.172 µM)
- MIC Range [8]: 0.12 to 2 µg/mL
- MIC ([8]; Nakaseomyces glabratus, read-out: GM (geometric mean MIC)): 0.56 µg/mL (≈ 1.6 µM)
- MIC50 ([8]; Nakaseomyces glabratus, read-out: MIC50): 0.5 µg/mL (≈ 1.43 µM)
- MIC90 ([8]; Nakaseomyces glabratus, read-out: MIC90): 0.5 µg/mL (≈ 1.43 µM)
- MIC Range [9]: 0.06 µg/mL (≈ 0.172 µM)
- MIC ([9]; Meyerozyma guilliermondii, read-out: GM (geometric mean MIC)): 0.06 µg/mL (≈ 0.172 µM)
- MIC Range [10]: <0.03 to 16 µg/mL
- MIC ([10]; Kluyveromyces marxianus, read-out: GM (geometric mean MIC)): 1.63 µg/mL (≈ 4.67 µM)
- MIC50 ([10]; Kluyveromyces marxianus, read-out: MIC50): < 0.03 µg/mL
- MIC90 ([10]; Kluyveromyces marxianus, read-out: MIC90): 0.6 µg/mL (≈ 1.72 µM)
